Results as given in ChEMBL document CHEMBL5724558, “Image-based profiling of drug vulnerabilities in CRC organoids” (2024).
Several values for one entry are separate records, joined by “and”; a condition that tells them apart may be missing. Equal entries are not always repeated.

Legend:
Format in all cases: functional, Homo sapiens
Set-up in all cases: dose or concentration left out as unconfirmed
Colon cancer organoid [1] = assay: (§1) Image-based profiling of donated chemical probes and chemogenomic kinase set in O06 CRC organoid. Image analysis is performed on the sum area metric, and the data were normalized to the DMSO control. After imaging the organoid viability is measured using the OneGloEX Luciferase Assay System. The normalized viability data and sum area are reported.
Colon cancer organoid [2] = assay: as §1, with “O09” for “O06”
Colon cancer organoid [3] = assay: as §1, with “O21” for “O06”

Structure (SMILES): Cc1noc([C@H]2C[C@@H](c3ccc(C(F)(F)F)cc3)CN(C(=O)N3CCS(=O)(=O)C3)C2)n1 [BAY-448]
- Cell Viability (Colon cancer organoid [1]; Replication number 1): 117.281% and 106.792%
- Cell Viability (Colon cancer organoid [1]; Replication number 2): 86.8627% and 94.2849%
- Cell Viability (Colon cancer organoid [2]; Replication number 1): 144.748% and 117.786%
- Cell Viability (Colon cancer organoid [2]; Replication number 2): 135.729% and 111.574%
- Cell Viability (Colon cancer organoid [3]; Replication number 1): 88.3285% and 80.3363%
- Cell Viability (Colon cancer organoid [3]; Replication number 2): 88.286% and 95.9184%

Structure (SMILES): CC1=C(C#N)C(c2ccc3[nH]nc(C)c3c2)C(C#N)=C(C)N1 [BAY-474]
- Cell Viability (Colon cancer organoid [1]; Replication number 1): 114.031% and 109.602%
- Cell Viability (Colon cancer organoid [1]; Replication number 2): 118.528% and 111.578%
- Cell Viability (Colon cancer organoid [2]; Replication number 1): 97.0801% and 99.3894%
- Cell Viability (Colon cancer organoid [2]; Replication number 2): 77.9563% and 84.1183%
- Cell Viability (Colon cancer organoid [3]; Replication number 1): 98.4176% and 90.2329%
- Cell Viability (Colon cancer organoid [3]; Replication number 2): 78.5633% and 94.3878%

Structure (SMILES): CC(=O)C1=C(C)N(c2cccc(C(F)(F)F)c2)C(=O)N[C@H]1c1ccc(C#N)nc1 [BAY-677]
- Cell Viability (Colon cancer organoid [1]; Replication number 1): 100.678% and 123.419%
- Cell Viability (Colon cancer organoid [1]; Replication number 2): 118.859% and 107.077%
- Cell Viability (Colon cancer organoid [2]; Replication number 1): 129.525% and 109.185%
- Cell Viability (Colon cancer organoid [2]; Replication number 2): 133.262% and 97.2618%
- Cell Viability (Colon cancer organoid [3]; Replication number 1): 113.516% and 88.4864%
- Cell Viability (Colon cancer organoid [3]; Replication number 2): 88.4804% and 82.1429%

Structure (SMILES): CC(=O)C1=C(C)N(c2cccc(C(F)(F)F)c2)C(=O)N[C@@H]1c1ccc(C#N)nc1 [BAY-678]
- Cell Viability (Colon cancer organoid [1]; Replication number 1): 116.42% and 104.215%
- Cell Viability (Colon cancer organoid [1]; Replication number 2): 86.788% and 60.6455%
- Cell Viability (Colon cancer organoid [2]; Replication number 1): 154.648% and 117.069%
- Cell Viability (Colon cancer organoid [2]; Replication number 2): 95.0691% and 89.9598%
- Cell Viability (Colon cancer organoid [3]; Replication number 1): 123.826% and 98.3829%
- Cell Viability (Colon cancer organoid [3]; Replication number 2): 102.879% and 115.306%

Structure (SMILES): Cc1nc(C2CCN(C(=O)c3ccc(OC(F)(F)F)cc3N)CC2)c2ncc(N3CCN(C)CC3)cc2n1 [BAY-693]
- Cell Viability (Colon cancer organoid [1]; Replication number 1): 107.628% and 117.814%
- Cell Viability (Colon cancer organoid [1]; Replication number 2): 129.663% and 123.258%
- Cell Viability (Colon cancer organoid [2]; Replication number 1): 87.1033% and 97.7241%
- Cell Viability (Colon cancer organoid [2]; Replication number 2): 88.4972% and 107.653%
- Cell Viability (Colon cancer organoid [3]; Replication number 1): 120.305% and 115.678%
- Cell Viability (Colon cancer organoid [3]; Replication number 2): 95.3265% and 86.6757%

Structure (SMILES): O=C(O)[C@@H]1[C@@H](Cn2nnc3ccccc3c2=O)CC[C@H]1C(=O)c1ccc(OCCC2CCOCC2)cc1 [BAY-694]
- Cell Viability (Colon cancer organoid [1]; Replication number 1): 110.156% and 94.3794%
- Cell Viability (Colon cancer organoid [1]; Replication number 2): 134.213% and 84.5721%
- Cell Viability (Colon cancer organoid [2]; Replication number 1): 120.527% and 70.2416%
- Cell Viability (Colon cancer organoid [2]; Replication number 2): 178.043% and 104.564%
- Cell Viability (Colon cancer organoid [3]; Replication number 1): 110.342% and 94.3079%
- Cell Viability (Colon cancer organoid [3]; Replication number 2): 96.7199% and 85.7143%

Structure (SMILES): O=C(NCc1ncc(C(F)(F)F)cc1Cl)c1ccc2c(c1)C1(CCS(=O)(=O)CC1)[C@@H](C1CC1)N2S(=O)(=O)c1ccc(F)cc1 [BAY-786]
- Cell Viability (Colon cancer organoid [1]; Replication number 1): 93.4369% and 85.4801%
- Cell Viability (Colon cancer organoid [1]; Replication number 2): 92.4233% and 87.6518%
- Cell Viability (Colon cancer organoid [2]; Replication number 1): 144.169% and 104.407%
- Cell Viability (Colon cancer organoid [2]; Replication number 2): 144.169% and 145.747%
- Cell Viability (Colon cancer organoid [3]; Replication number 1): 89.1117% and 93.1436%
- Cell Viability (Colon cancer organoid [3]; Replication number 2): 89.1705% and 87.7551%

Structure (SMILES): Cc1c(NC(=O)c2cc(C(N)=O)nc3cc(F)ccc23)c(C(F)(F)F)nn1Cc1ccc(C#N)cc1 [BAY-876]
- Cell Viability (Colon cancer organoid [1]; Replication number 1): 10.662% and 26.9321%
- Cell Viability (Colon cancer organoid [1]; Replication number 2): 13.3809% and 14.2138%
- Cell Viability (Colon cancer organoid [2]; Replication number 1): 36.4456% and 33.4484%
- Cell Viability (Colon cancer organoid [2]; Replication number 2): 36.255% and 13.5816%
- Cell Viability (Colon cancer organoid [3]; Replication number 1): 21.7392% and 19.9094%
- Cell Viability (Colon cancer organoid [3]; Replication number 2): 22.1552% and 34.1837%

Structure (SMILES): CN1CCN(c2cnc3c(C4CCN(C(=O)c5ccc(OC(F)(F)F)cc5N)CC4)ncnc3c2)CC1 [BAY-885]
- Cell Viability (Colon cancer organoid [1]; Replication number 1): 84.7491% and 99.8381%
- Cell Viability (Colon cancer organoid [1]; Replication number 2): 93.9717% and 91.062%
- Cell Viability (Colon cancer organoid [2]; Replication number 1): 40.0205% and 84.5942%
- Cell Viability (Colon cancer organoid [2]; Replication number 2): 66.5359% and 88.2236%
- Cell Viability (Colon cancer organoid [3]; Replication number 1): 131.298% and 119.498%
- Cell Viability (Colon cancer organoid [3]; Replication number 2): 99.2561% and 98.9123%

Structure (SMILES): O=C(Nc1cnc(Oc2ccc(F)cc2)nc1)N1CCc2ncccc2[C@@H]1c1ccc(F)cc1 [BAY-899]
- Cell Viability (Colon cancer organoid [1]; Replication number 1): 95.5159% and 118.785%
- Cell Viability (Colon cancer organoid [1]; Replication number 2): 100.58% and 108.361%
- Cell Viability (Colon cancer organoid [2]; Replication number 1): 90.6617% and 101.288%
- Cell Viability (Colon cancer organoid [2]; Replication number 2): 105.766% and 101.705%
- Cell Viability (Colon cancer organoid [3]; Replication number 1): 121.151% and 99.8545%
- Cell Viability (Colon cancer organoid [3]; Replication number 2): 98.3369% and 80.5574%

Structure (SMILES): CC1=C(C#N)C(c2ccc3c(c2)c(NC(=O)c2ccccc2C)nn3C)C(C#N)=C(C)N1 [BAY-974]
- Cell Viability (Colon cancer organoid [1]; Replication number 1): 84.6822% and 93.2084%
- Cell Viability (Colon cancer organoid [1]; Replication number 2): 111.085% and 112.763%
- Cell Viability (Colon cancer organoid [2]; Replication number 1): 82.726% and 84.3377%
- Cell Viability (Colon cancer organoid [2]; Replication number 2): 101.367% and 119.752%
- Cell Viability (Colon cancer organoid [3]; Replication number 1): 90.5008% and 96.0543%
- Cell Viability (Colon cancer organoid [3]; Replication number 2): 89.8417% and 122.959%

Structure (SMILES): C[C@H](c1ccnc(Nc2nc3ccc(-c4cc(N(C)C)ncn4)cc3[nH]2)c1)N1CCN(C(=O)CC(F)(F)F)CC1 [BAY-985]
- Cell Viability (Colon cancer organoid [1]; Replication number 1): 90.8191% and 114.52%
- Cell Viability (Colon cancer organoid [1]; Replication number 2): 122.693% and 118.685%
- Cell Viability (Colon cancer organoid [2]; Replication number 1): 71.2214% and 105.601%
- Cell Viability (Colon cancer organoid [2]; Replication number 2): 101.014% and 89.9598%
- Cell Viability (Colon cancer organoid [3]; Replication number 1): 79.4083% and 115.847%
- Cell Viability (Colon cancer organoid [3]; Replication number 2): 85.0487% and 108.163%
